Measured values: patent publication US12479821B2 (MBD CO., LTD., priority 2019, dated 2025)
Like-named read-outs stand apart in the source and are kept apart here.

Target: T1, CYP4A (Homo sapiens, UniProt Q02928)
T1 construct: host or cells: bactosome, i.e. bacterial membrane preparation (own knowledge of the term)
T1 sequence (Q02928 5-519): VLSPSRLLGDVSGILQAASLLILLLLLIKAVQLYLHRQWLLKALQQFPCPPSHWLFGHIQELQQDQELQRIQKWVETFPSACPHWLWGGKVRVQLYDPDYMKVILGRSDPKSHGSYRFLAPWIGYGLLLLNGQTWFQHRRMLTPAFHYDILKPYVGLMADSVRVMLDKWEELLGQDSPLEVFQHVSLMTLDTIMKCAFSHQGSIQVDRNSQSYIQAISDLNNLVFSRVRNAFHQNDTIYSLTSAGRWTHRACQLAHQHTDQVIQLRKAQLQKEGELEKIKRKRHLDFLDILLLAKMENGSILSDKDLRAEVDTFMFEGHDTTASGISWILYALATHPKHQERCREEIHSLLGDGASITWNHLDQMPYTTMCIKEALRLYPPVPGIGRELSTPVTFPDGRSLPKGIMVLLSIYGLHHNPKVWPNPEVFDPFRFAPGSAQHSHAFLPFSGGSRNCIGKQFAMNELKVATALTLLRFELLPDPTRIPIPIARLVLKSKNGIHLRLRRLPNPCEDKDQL
Assay: CYP4A enzyme assay (Luciferin-ME luminescence, CYP4A bactosome)
Format: biochemical
Conditions: compound concentration 5 μM
Procedure: A commercially available reagent was used for the reagent used in the experiment, and it was manufactured and used if necessary. The device used for activity measurement was EnVision of PerkinElmer or SpectraMax of MOLECULAR DEVICES.
First, CYP4A bactosome and synthetic compound (5 μM) were mixed in assay buffer (100 mM KPO4, 0.1% BSA, 1 mM DTT) in a 384-well plate (white opaque ploystyrene nontreated flat-bottom well), and then reacted at room temperature for 15 minutes. After adding 5 mM Luciferin-ME and NADPH Regeneration system (10× sol.A, 20× sol.B in assay buffer, Cat. Number: V865B, Promega), leave it at room temperature for 30 minutes to allow the CYP4A reaction to occur sufficiently, by adding the Luciferin Detection reagent, the CYP4A reaction was finished, luminescence reaction was induced, and the reaction was carried out at room temperature for 15 minutes. The degree of inhibition of CYP4A activity was measured by comparing the luminescence values from each well with a microplate reader.

[1] = '50%-75%', read-out: % Inhibition 50%-75%
[2] = 75% or more, read-out: % Inhibition 75% or more
[3] = 25%-50%, read-out: % Inhibition 25%-50%

| inhibition at 5 µM [1] [%] | inhibition at 5 µM [2] [%] | Compound | also measured |
| --- | --- | --- | --- |
| 50 to 75 | – | Cc1cc(N2CCN(C(=O)C3CCCN(S(=O)(=O)c4ccc(S(C)(=O)=O)cc4)C3)CC2)c2ccccc2n1 (stereo not shown) [Formula 36, (4-(2-methylquinolin-4-yl)piperazin-1-yl) (1-(4-(methylsulfonyl)phenylsulfonyl)piperidin-3-yl) methanone] | – |
| 50 to 75 | – | Cc1cc(N2CCN(C(=O)C3CCCN(S(=O)(=O)c4ccc(F)cc4)C3)CC2)c2ccccc2n1 (stereo not shown) [Formula 24, (1-((4-fluorophenyl)sulfonyl)piperidin-3-yl) (4-(2-methylquinolin-4-yl)piperazin-1-yl) methanone] | – |
| – | ≥ 75 | CC(=O)Nc1ccc(S(=O)(=O)N2CCCC(C(=O)N3CCN(c4ccnc5cc(F)ccc45)CC3)C2)cc1 (stereo not shown) [Formula 45, N-(4-(3-(1-(7-fluoroquinolin-4-yl)piperazine-4-carbonyl)piperidin-1-ylsulfonyl)phenyl) acetamide] | – |
| – | – | Cc1cc(N2CCN(C(=O)C3CCCN(S(=O)(=O)c4ccccc4F)C3)CC2)c2ccccc2n1 (stereo not shown) [Formula 33, (1-(2-fluorophenylsulfonyl)piperidin-3-yl) (4-(2-methylquinolin-4-yl)piperazin-1-yl) methanone] | inhibition at 5 µM [3]: 25 to 50% |
| – | – | CCc1ccc(S(=O)(=O)N2CCCC(C(=O)N3CCN(c4cc(C)nc5ccccc45)CC3)C2)cc1 (stereo not shown) [Formula 23, (1-(4-ethylphenylsulfonyl)piperidin-3-yl) (4-(2-methylquinolin-4-yl)piperazin-1-yl) methanone] | inhibition at 5 µM [3]: 25 to 50% |
| 50 to 75 | – | O=C(C1CCCN(S(=O)(=O)c2ccccc2)C1)N1CCN(c2ccnc3cc(Cl)ccc23)CC1 (stereo not shown) [Formula 1, (4-(7-chloroquinolin-4-yl)piperazin-1-yl) (1-(phenylsulfonyl)piperidin-3-yl) methanone] | – |
| – | – | Cc1cc(N2CCN(C(=O)C3CCCN(S(=O)(=O)c4ccc(C(=O)O)cc4)C3)CC2)c2ccccc2n1 (stereo not shown) [Formula 100, 4-(3-(1-(2-methylquinolin-4-yl)piperazine-4-carbonyl)piperidin-1-ylsulfonyl)benzoic acid] | inhibition at 5 µM (mark in column '25% or less', read-out: % Inhibition 25% or less): ≤ 25% |
| – | – | Cc1cc(N2CCN(C(=O)C3CCCN(S(=O)(=O)c4c(F)c(F)c(F)c(F)c4F)C3)CC2)c2ccccc2n1 (stereo not shown) [Formula 30, (4-(2-methylquinolin-4-yl)piperazin-1-yl) (1-(perfluorophenylsulfonyl)piperidin-3-yl) methanone] | inhibition at 5 µM [3]: 25 to 50% |
| – | – | COC(=O)c1ccc(S(=O)(=O)N2CCCC(C(=O)N3CCN(c4cc(C)nc5ccccc45)CC3)C2)cc1 (stereo not shown) [Formula 37, methyl 4-(3-(1-(2-methylquinolin-4-yl)piperazine-4-carbonyl)piperidin-1-ylsulfonyl)benzoate] | inhibition at 5 µM [3]: 25 to 50% |
| – | ≥ 75 | O=C(C1CCCN(S(=O)(=O)c2cccc(O)c2)C1)N1CCN(c2ccnc3ccccc23)CC1 (stereo not shown) [Formula 95, (1-(3-hydroxyphenylsulfonyl)piperidin-3-yl) (4-(quinolin-4-yl)piperazin-1-yl) methanone] | – |
| 50 to 75 | – | O=C(C1CCCN(S(=O)(=O)c2ccccc2)C1)N1CCN(c2ccnc3cc(F)ccc23)CC1 (stereo not shown) [Formula 41, (4-(7-fluoroquinolin-4-yl)piperazin-1-yl) (1-(phenylsulfonyl)piperidin-3-yl) methanone] | – |
| 50 to 75 | – | COc1ccc2c(N3CCN(C(=O)C4CCCN(S(=O)(=O)c5ccc(F)cc5)C4)CC3)ccnc2c1 (stereo not shown) [Formula 89, (1-(4-fluorophenylsulfonyl)piperidin-3-yl) (4-(7-methoxyquinolin-4-yl)piperazin-1-yl) methanone] | – |
| – | – | O=C([C@H]1CCCN(S(=O)(=O)c2ccc(O)cc2)C1)N1CCN(c2cc(C(F)(F)F)nc3ccccc23)CC1 [Formula 70, (S)-(1-(4-hydroxyphenylsulfonyl)piperidin-3-yl) (4-(2-(trifluoromethyl)quinolin-4-yl)piperazin-1-yl) methanone] | inhibition at 5 µM [3]: 25 to 50% |
| – | ≥ 75 | CN(C)c1ccc(S(=O)(=O)N2CCCC(C(=O)N3CCN(c4ccnc5cc(F)ccc45)CC3)C2)cc1 (stereo not shown) | – |
| – | ≥ 75 | CN(C)c1ccc(S(=O)(=O)N2CCCC(C(=O)N3CCN(c4ccnc5cc(Cl)ccc45)CC3)C2)cc1 (stereo not shown) [Formula 4, (4-(7-chloroquinolin-4-yl)piperazin-1-yl) (1-((4-(dimethylamino)phenyl)sulfonyl)piperidin-3-yl) methanone] | – |
| 50 to 75 | – | O=C(C1CCCN(S(=O)(=O)c2ccc(-c3ccccc3)cc2)C1)N1CCN(c2ccnc3cc(Cl)ccc23)CC1 (stereo not shown) [Formula 13, (4-(7-chloroquinolin-4-yl)piperazin-1-yl) (1-(4-phenylbenzenesulfonyl)piperidin-3-yl) methanone] | – |
| 50 to 75 | – | Cc1cc(N2CCN(C(=O)C3CCCN(S(=O)(=O)c4ccc(-c5cncnc5)cc4)C3)CC2)c2ccccc2n1 (stereo not shown) [Formula 103, (4-(2-methylquinolin-4-yl)piperazin-1-yl) (1-((4-(pyrimidin-5-yl)phenyl)sulfonyl)piperidin-3-yl) methanone] | – |
| – | ≥ 75 | O=C(C1CCCN(S(=O)(=O)c2ccc(O)cc2)C1)N1CCN(c2ccnc3ccccc23)CC1 (stereo not shown) [Formula 76, (1-((4-hydroxyphenyl)sulfonyl)piperidin-3-yl) (4-(quinolin-4-yl)piperazin-1-yl) methanone] | – |
| – | ≥ 75 | O=C(C1CCCN(S(=O)(=O)c2ccc([N+](=O)[O-])cc2)C1)N1CCN(c2ccnc3cc(Cl)ccc23)CC1 (stereo not shown) [Formula 117, (4-(7-chloroquinolin-4-yl)piperazin-1-yl) (1-(4-nitrophenylsulfonyl)piperidin-3-yl) methanone] | – |
| – | ≥ 75 | O=C(C1CCCN(S(=O)(=O)c2ccc(F)cc2)C1)N1CCN(c2ccnc3cc(F)ccc23)CC1 (stereo not shown) [Formula 42, (1-((4-fluorophenyl)sulfonyl)piperidin-3-yl) (4-(7-fluoroquinolin-4-yl)piperazin-1-yl) methanone] | – |
| – | – | O=C(C1CCCN(S(=O)(=O)c2ccc(C(F)(F)F)cc2)C1)N1CCN(c2cc(C(F)(F)F)nc3ccccc23)CC1 (stereo not shown) [Formula 71, (1-(4-(trifluoromethyl)phenylsulfonyl)piperidin-3-yl) (4-(2-(trifluoromethyl)quinolin-4-yl)piperazin-1-yl) methanone] | inhibition at 5 µM [3]: 25 to 50% |
| – | ≥ 75 | COc1cccc(S(=O)(=O)N2CCCC(C(=O)N3CCN(c4ccnc5cc(F)ccc45)CC3)C2)c1 (stereo not shown) [Formula 58, (4-(7-fluoroquinolin-4-yl)piperazin-1-yl) (1-(3-methoxyphenylsulfonyl)piperidin-3-yl) methanone] | – |
| 50 to 75 | – | O=C(C1CCCN(S(=O)(=O)c2ccccc2)C1)N1CCN(c2ccnc3ccccc23)CC1 (stereo not shown) [Formula 74, (1-(phenylsulfonyl)piperidin-3-yl) (4-(quinolin-4-yl)piperazin-1-yl) methanone] | – |
| 50 to 75 | – | COc1ccc2c(N3CCN(C(=O)C4CCCN(S(=O)(=O)c5ccc(O)cc5)C4)CC3)ccnc2c1 (stereo not shown) [Formula 91, (1-(4-hydroxyphenylsulfonyl)piperidin-3-yl) (4-(7-methoxyquinolin-4-yl)piperazin-1-yl)methanone] | – |
| 50 to 75 | – | Cc1cc(N2CCN(C(=O)C3CCCN(S(=O)(=O)c4cccc(O)c4)C3)CC2)c2ccccc2n1 (stereo not shown) [Formula 93, (1-(3-hydroxyphenylsulfonyl)piperidin-3-yl) (4-(2-methylquinolin-4-yl)piperazin-1-yl) methanone] | – |
